Data published in article PMC4585962, “A peptide factor secreted by Staphylococcus pseudintermedius exhibits properties of both bacteriocins and virulence factors” (Scientific Reports, 2015).
No end group written: not given here. *: point of attachment. For = O=C*

Columns and labels:
E. coli DH5α (pALCP2G) = assay: GFP release assay; assay type: cell-based, Escherichia coli; settings: 2 × 10^6 CFU in PBS, 1 h 37 °C, 0.23 to 15 μM BacSp222, fluorescence of supernatant 480/510 nm
Description: The bacteria transformed with GFP-encoding plasmids (pCN68[59] for S. aureus RN4220; pALCP2G[60] for B. subtilis 1A751[61] and E. coli DH5α) were grown overnight in TSB supplemented with appropriate antibiotics, washed twice and finally suspended in PBS. Fifty microliters of the suspensions containing 2 × 10^6 CFU of bacteria were then incubated for 1 h at 37 °C with serial dilutions of BacSp222 at concentrations ranging from 0.23 to 15 μM. Then, the bacteria were spun down, and the fluorescence in the supernatant was determined (Synergy H1 microplate reader, BioTek, 480/510 nm excitation/emission wavelengths). As the controls for 100% GFP release, S. aureus and B. subtilis were lysed using lysostaphin and chicken egg white lysozyme (Sigma), respectively, whereas the E. coli cells were disrupted by ultrasonication.

[1] = test system: Staphylococcus aureus DSM 26258 (CH91); assay: MIC, microdilution assay; assay type: cell-based; settings: broth microdilution (CLSI), MHB, overnight 37 °C, OD 600 nm; mean of three independent measurements
Description: The microbicidal activity of BacSp222 was determined using the microdilution method in compliance with Clinical and Laboratory Standards Institute (CLSI, for bacteria) guidelines M7-A7[57] and in compliance with the European Committee on Antimicrobial Susceptibility Testing - Subcommittee on Antifungal Susceptibility Testing (EUCAST-AFST, for fungi)[58]. Briefly, the microorganisms were cultivated in dedicated liquid media to reach the early exponential phase or, in the case of Streptococcus spp., grown overnight on agar MHB supplemented with 2.5% (v/v) lysed horse blood (LHB). Subsequently, the microorganisms were diluted to 1 × 10^6 CFU/ml (estimated using an Eddy Jet 2 automatic spiral plater, IUL) in MHB; in MHB supplemented with 5% (v/v) LHB (for streptococci); or, in the case of Candida albicans, in RPMI-1640 medium (Thermo) without L-Glu and phenol red, supplemented with 0.6 g/l L-Glu, 34.53 g/l 3-(N-morpholino)propanesulphonic acid and 18 g/l glucose, pH 7.0. Fifty microliters of microorganism suspension were mixed with an equal volume of appropriate medium containing serial 2- or 1.5-fold dilutions of BacSp222. After the cultures were incubated overnight at 37 °C, the optical density (OD) at 600 nm was measured. The minimal inhibitory concentration (MIC), calculated as a mean value from three independent measurements, was defined as the minimum peptide concentration for which an increase in OD was not observed compared to uninoculated broth.

[2] = molecular target: T1, human neutrophil elastase (Homo sapiens, UniProt P08246); assay: Susceptibility to proteolysis, residual bactericidal activity; assay type: in vitro ADME; settings: 30 μM peptide, 100 mM Tris-HCl pH 8.0, enzyme:peptide 1:50 or 1:10 (w/w), 3 hours, 37 °C; residual activity by radial diffusion assay on B. subtilis; triplicate
T1 construct: purchased Biocentrum
Description: (§1) The bactericidal activity of BacSp222 was also determined using the radial diffusion assay. In TSB agar (1%, w/v) containing a 200× diluted overnight culture of Bacillus subtilis ATCC 6633, wells of 2.4-mm diameter were created by drilling out the agar and filling the hole with 10 μl of the BacSp222 preparation for testing. Following overnight incubation at 37 °C, the bactericidal activity was measured as the area of the inhibition zones.
(§2) The temperature stability of BacSp222 (30 μM final concentration) was determined in PBS. The solution was incubated for 1 or 3 h at 72 °C (typical temperature of pasteurization) or at 100 °C. Independently, a solution of bacteriocin was also subjected to a full cycle of autoclaving (20 min at 121 °C). The susceptibility of BacSp222 to proteolysis was verified using S. aureus staphopain C and V8 peptidase, human neutrophil elastase, human cathepsin G (Biocentrum), bovine TPCK-treated trypsin, pepsin from porcine gastric mucosa (Sigma), and proteinase K (A&A Biotechnology). The dried samples of BacSp222 were dissolved to a final concentration of 30 μM in the following buffers: 100 mM Tris-HCl pH 8.0 containing 5 mM CaCl2 (for trypsin and proteinase K), 100 mM Tris-HCl pH 7.5 containing 5 mM cysteine hydrochloride and 5 mM EDTA (for staphopain C), 100 mM Tris-HCl pH 8.0 (for elastase), 100 mM Tris-HCl pH 7.5 containing 500 mM NaCl (for cathepsin G), 100 mM sodium phosphate pH 7.8 (for V8 peptidase), and 100 mM ammonium acetate pH 4.0 (for pepsin). The peptidases were added at 1:50 or 1:10 (enzyme:BacSp222) ratios by weight, and the mixtures were incubated for 1 or 3 h at 37 °C. The residual activity was determined with the radial diffusion assay using Bacillus subtilis as an indicator strain. All of the above experiments were performed in triplicate.

proteinase K = molecular target: T2, proteinase K (Parengyodontium album, UniProt P06873); assay: as above; assay type: in vitro ADME; settings: 30 μM peptide, 100 mM Tris-HCl pH 8.0 with 5 mM CaCl2, enzyme:peptide 1:50 or 1:10 (w/w), 3 hours, 37 °C; residual activity by radial diffusion assay on B. subtilis; triplicate
T2 construct: purchased A&A Biotechnology
Description: as §1, §2

[3] = molecular target: T3, bovine TPCK-treated trypsin (Bos taurus, UniProt P00760); assay: as above; assay type: in vitro ADME; settings: 30 μM peptide, 100 mM Tris-HCl pH 8.0 with 5 mM CaCl2, enzyme:peptide 1:50 or 1:10 (w/w), 3 hours, 37 °C; residual activity by radial diffusion assay on B. subtilis; triplicate
T3 construct: purchased Sigma
Description: as §1, §2

human cathepsin G = molecular target: T4, human cathepsin G (Homo sapiens, UniProt P08311); assay: as above; assay type: in vitro ADME; settings: 30 μM peptide, 100 mM Tris-HCl pH 7.5 with 500 mM NaCl, enzyme:peptide 1:50 or 1:10 (w/w), 3 hours, 37 °C; residual activity by radial diffusion assay on B. subtilis; triplicate
T4 construct: purchased Biocentrum
Description: as §1, §2

[4] = molecular target: T5, pepsin from porcine gastric mucosa (Sus scrofa, UniProt P00791); assay: as above; assay type: in vitro ADME; settings: 30 μM peptide, 100 mM ammonium acetate pH 4.0, enzyme:peptide 1:50 or 1:10 (w/w), 3 hours, 37 °C; residual activity by radial diffusion assay on B. subtilis; triplicate
T5 construct: purchased Sigma; host or cells: porcine gastric mucosa
Description: as §1, §2

[5] = Hydrodynamic diameter by dynamic light scattering; assay type: physicochemical; settings: 0.2 mg/ml in PBS, room temperature, filtered 0.2 μm, average of three independent measurements; suggests elongated shape or dimers
Description: The hydrodynamic diameter of the BacSp222 molecule was determined at room temperature by the dynamic light scattering (DLS) technique using a Zetasizer Nano ZS apparatus (Malvern Instruments); a 0.2 mg/ml solution of the peptide in phosphate buffered saline (PBS) was used for analysis. Prior to measurements, the solution was filtered through a 0.2 μm bioinert membrane (Sigma). The obtained spectra were averaged over three independent measurements. The size of BacSp222 was also evaluated by gel filtration chromatography using a Superdex Peptide 10/300 GL column (GH Healthcare) operated in PBS with a 0.3 ml/min flow rate.

T2 sequence (P06873 106-384): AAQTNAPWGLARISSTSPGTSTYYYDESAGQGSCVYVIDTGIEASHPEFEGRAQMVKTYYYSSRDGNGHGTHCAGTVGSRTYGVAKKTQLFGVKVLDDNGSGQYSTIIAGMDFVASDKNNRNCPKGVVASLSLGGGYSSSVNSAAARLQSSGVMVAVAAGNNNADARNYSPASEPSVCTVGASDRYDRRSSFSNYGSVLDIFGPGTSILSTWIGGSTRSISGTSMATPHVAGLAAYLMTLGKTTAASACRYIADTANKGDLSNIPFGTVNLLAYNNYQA
T4 sequence (P08311 21-255): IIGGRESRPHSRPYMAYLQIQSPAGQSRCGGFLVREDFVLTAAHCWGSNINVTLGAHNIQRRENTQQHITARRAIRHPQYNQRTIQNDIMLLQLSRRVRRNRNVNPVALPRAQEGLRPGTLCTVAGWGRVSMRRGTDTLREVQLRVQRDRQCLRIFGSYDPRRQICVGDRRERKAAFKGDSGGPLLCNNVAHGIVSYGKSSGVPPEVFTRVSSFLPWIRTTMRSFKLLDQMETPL
T1 sequence (P08246 30-267): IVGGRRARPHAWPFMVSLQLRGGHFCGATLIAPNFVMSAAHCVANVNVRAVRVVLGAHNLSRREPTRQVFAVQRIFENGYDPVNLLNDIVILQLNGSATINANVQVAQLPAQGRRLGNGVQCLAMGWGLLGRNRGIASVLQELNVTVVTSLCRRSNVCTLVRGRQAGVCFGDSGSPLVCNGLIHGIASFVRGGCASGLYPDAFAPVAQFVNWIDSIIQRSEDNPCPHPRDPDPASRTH
T5 sequence (P00791 60-385): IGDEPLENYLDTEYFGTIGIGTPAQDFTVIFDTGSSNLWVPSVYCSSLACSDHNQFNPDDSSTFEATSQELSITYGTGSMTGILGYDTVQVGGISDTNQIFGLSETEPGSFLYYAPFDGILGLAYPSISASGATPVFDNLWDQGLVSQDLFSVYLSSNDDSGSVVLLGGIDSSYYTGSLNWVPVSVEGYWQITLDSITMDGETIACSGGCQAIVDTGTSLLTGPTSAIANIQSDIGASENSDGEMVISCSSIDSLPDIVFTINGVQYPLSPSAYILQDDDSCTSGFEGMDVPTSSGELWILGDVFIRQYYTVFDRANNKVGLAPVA
T3 sequence (P00760 24-246): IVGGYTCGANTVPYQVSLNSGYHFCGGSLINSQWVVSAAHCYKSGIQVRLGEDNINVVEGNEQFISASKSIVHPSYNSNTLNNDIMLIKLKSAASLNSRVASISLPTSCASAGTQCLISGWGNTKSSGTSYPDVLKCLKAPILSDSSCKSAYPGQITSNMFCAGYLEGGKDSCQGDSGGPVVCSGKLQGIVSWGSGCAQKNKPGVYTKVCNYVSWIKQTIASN

Substance: For-MAGLLRFLLSKGRALYNWAKSHVGKVWEWLKSGATYEQIKEWIENALGWR [BacSp222]
- leakage of GFP from recombinant cells (E. coli DH5α (pALCP2G)): not
- MIC ± SD [1]: 0.92 ± 0.23 µM
- activity of BacSp222 after incubation with the enzyme [2]: not significantly reduced
- activity of BacSp222 after incubation with the enzyme (proteinase K): not significantly reduced
- activity of BacSp222 after incubation with the enzyme [3]: not significantly reduced
- activity of BacSp222 after incubation with the enzyme (human cathepsin G): not significantly reduced
- activity of BacSp222 after incubation with the enzyme [4]: not significantly reduced
- hydrodynamic diameter estimated by DLS [5]: 3.68 nm
